Assay results: patent US20050143321A1, “Composition with stabilized redox properties and method of stabilization of redox properties” (priority 2002, published 2005)

Assays:
Klebsiella pneumoniae = test: Sensitivity of bacteria to antibiotics dissolved in composition, diffusion into nutrient agar; type: cell-based; set-up: Rate of increase of sensitivity of bacteria (increase of diameters of zones of suppression vs control): concentration or dose not given beside the values; details: for Rate of increase of sensitivity of bacteria (increase of diameters of zones of suppression vs control): Clebsiella, antibiotic dissolved in composition pH=7.9, Eh=−230 mV
Method: (§1) It was used the method of preparations diffusion into nutrient agar. […] It was used sterilized water with Eh=250 mV, SCE, pH=7.9 and mineralization 350 mg/l for control.

Salmonella sp. = test: as above; type: cell-based; set-up: Rate of increase of sensitivity of bacteria (increase of diameters of zones of suppression vs control): concentration or dose not given beside the values; details: for Rate of increase of sensitivity of bacteria (increase of diameters of zones of suppression vs control): Salmonella, antibiotic dissolved in composition pH=7.9, Eh=−230 mV; for change of strain sensitivity: antibiotic dissolved in composition
Method: as §1

S. aureus = test: as above; type: cell-based; details: for Rate of increase of sensitivity of bacteria (increase of diameters of zones of suppression vs control): Staphylococcus, antibiotic dissolved in composition pH=7.9, Eh=−230 mV
Method: as §1

Shigella sp. = test: as above; type: cell-based; details: for Rate of increase of sensitivity of bacteria (increase of diameters of zones of suppression vs control): Shigella, antibiotic dissolved in composition pH=7.9, Eh=−230 mV; for change of strain sensitivity: antibiotic dissolved in composition
Method: as §1

[1] = Stabilization of redox properties of water solution, 6 months storage at 50° C after autoclaving; type: physicochemical; details: autoclaved
Method: Water from water supply system with initial characteristics: Eh=+260 mV, SCE, and pH 6.7, is directed to the device of “Izumrud”-type, which is manufactured in Russia. On the output characteristics of water have the values: […] After sterilization these flasks with mentioned water solutions are put into the thermostat at temperature 50° C. Flasks with water solutions corresponding to this invention and stored at the mentioned temperature, protected from light, during 6 months. After 6 months flasks are opened, and the redox potential is measured.

[2] = Content of MDA in liposome dispersions (oxidation of phospholipids); type: physicochemical; details: Yolk lecithin liposomes; 1 hour
Method: In the experiment liposomes are made by mixing and ultrasound treatment of phospholipids of yolk and the water solution, corresponding to this invention, with specified redox properties, containing glycine. Liposomes, prepared by this method, are the milk-white suspension. […] Electrochemically activated water: anomalous properties, mechanism of biological effect. Moscow 1997, […]. 152). There was also determined the rate of oxidation of phospholipids according to content of dialdehyde malonate (DMA).

[3] = antibiotic dissolved in composition

Row | Molecule | Rate of increase of sensitivity of bacteria (increase of diameters of zones of suppression vs control) (Klebsiella pneumoniae) [%] | Rate of increase of sensitivity of bacteria (increase of diameters of zones of suppression vs control) (Salmonella sp.) [%] | Rate of increase of sensitivity of bacteria (increase of diameters of zones of suppression vs control) (S. aureus) [%] | Rate of increase of sensitivity of bacteria (increase of diameters of zones of suppression vs control) (Shigella sp.) [%] | pH after 6 months ([1]; 0.005% of weight) | pH after 6 months ([1]; 0.5% of weight) | pH after 6 months ([1]; 10% of weight) | also measured
1 | NCC[C@H](O)C(=O)N[C@@H]1C[C@H](N)[C@@H](O[C@H]2O[C@H](CN)[C@@H](O)[C@H](O)[C@H]2O)[C@H](O)[C@H]1O[C@H]1O[C@H](CO)[C@@H](O)[C@H](N)[C@H]1O [Amicacin] | 34 | 18 | 4 | 38 |  |  |  | change of sensitivity (Klebsiella pneumoniae; [3]): increased; change of strain sensitivity (Shigella sp.): from medium sensitive to sensitive
2 | CC1(C)S[C@@H]2[C@H](NC(=O)[C@H](N)c3ccccc3)C(=O)N2[C@H]1C(=O)O [Ampicillin] | 7 | 26 | 22 | 44 |  |  |  | change of strain sensitivity (Salmonella sp.): from medium sensitive to sensitive; change of sensitivity (S. aureus; [3]): increased; change of strain sensitivity (Shigella sp.): from resistant to sensitive
3 | NC(=O)C[C@H](N)C(=O)O [Asparagine] |  |  |  |  | 5.9 | 6.9 | 7.0 | 
4 | O=C(N[C@H](CO)[C@H](O)c1ccc([N+](=O)[O-])cc1)C(Cl)Cl [Chloramphenicol] | 5 | 6 | 3 | 17 |  |  |  | 
5 | N[C@@H](CS)C(=O)O [Cysteine] |  |  |  |  | 7.3 | 7.8 | 6.9 | 
6 | NC(=O)CC[C@H](N)C(=O)O [Glutamine] |  |  |  |  | 5.8 | 7.2 | 7.2 | 
7 | NCC(N)=O [Glycine amide] |  |  |  |  | 6.5 | 7.4 | 7.0 | 
8 | NCC(=O)O [Glycine] |  |  |  |  | 7.2 | 7.9 | 7.7 | 
9 | NC[C@H]1O[C@H](O[C@H]2[C@H](O)[C@@H](O[C@H]3O[C@H](CO)[C@@H](O)[C@H](N)[C@H]3O)[C@H](N)C[C@@H]2N)[C@H](O)[C@@H](O)[C@@H]1O [Kanamycin] | 12 | 18 | 8 | 35 |  |  |  | 
10 | CCn1cc(C(=O)O)c(=O)c2ccc(C)nc21 [Nalidixic acid] | 11 | 42 | 3 | 33 |  |  |  | change of strain sensitivity (Salmonella sp.): from resistant to sensitive
11 | N[C@@H](CO)C(=O)O [Serine] |  |  |  |  | 7.1 | 7.8 | 7.6 | 
12 | C[C@@H](O)[C@H](N)C(=O)O [Threonine] |  |  |  |  | 7.1 | 7.5 | 7.4 | 
13 | N[C@@H](Cc1ccc(O)cc1)C(=O)O [Tyrosine] |  |  |  |  | 7.2 | 7.4 | 7.2 | Eh after 6 months ([1]; 0.005% of weight): −5 mV; Eh after 6 months ([1]; 0.5% of weight): −80 mV; Eh after 6 months ([1]; 10% of weight): −30 mV
14 | Cc1cc(C(C)(C)C)c(O)c(C(C)(C)C)c1 [Water + agidol (1.0%), agidol] |  |  |  |  |  |  |  | Content of MDA [2]: 2.0 nmol/mL
15 | Cc1cc(C(C)(C)C)c(O)c(C(C)(C)C)c1 [Water + butyl-hydroxytoluene (0.1%), butyl-hydroxytoluene] |  |  |  |  |  |  |  | Content of MDA [2]: 2.7 nmol/mL
16 | CC(=O)Oc1c(C)c(C)c2c(c1C)CCC(C)(CCC[C@H](C)CCC[C@H](C)CCCC(C)C)O2 (some centres unmarked) [Water + tocopherol acetate (2%), tocopherol acetate] |  |  |  |  |  |  |  | Content of MDA [2]: 3.1 nmol/mL
17 | Gelatin |  |  |  |  | 6.8 | 7.3 | 7.6 | 
18 | Gentamycin | 6 | 47 | 11 | 40 |  |  |  | change of strain sensitivity (Salmonella sp.): from resistant to sensitive; change of strain sensitivity (Shigella sp.): from resistant to sensitive
